Assay results from patent publication US8691864B2, “Agents useful for reducing amyloid precursor protein and treating dementia and methods of use thereof” (priority 2000, dated 2014).

Tested on: Aβ1-40
Test: Aβ1-40 levels in cerebral cortex of transgenic mice, ELISA
Type: in vivo
Details: formic acid extraction, 3 weeks daily
Procedure: Greater reductions could be achieved, but, as previously reported, doses of >5 mg/kg produce cholinergic side effects for the (−)-enantiomer but not for the (+)-enantiomer.
Samples of cerebral cortex from the transgenic mice then were analyzed for β amyloid peptide (Aβ) levels. Specifically, Aβ1-40 and Aβ1-42 levels, following formic acid extraction, were determined by ELISA assay (Suzuki et al., 1994).

## CN1CC[C@@]2(C)c3cc(OC(=O)Nc4ccccc4)ccc3N(C)[C@@H]12 [(−)-phenserine]
  reduction of Aβ1-40 levels: 68%
